Tested on: AMPK
Test: AMPK activation assay (enzyme-linked immunosorbent assay)
Assay type: cell-based
Procedure, shortened: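 Activator screen performed per well-known kit methods.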

Row | SMILES | EC50 [nM]
1 | N#Cc1ccc(CN2CCC(NC(=O)c3ccc(C(=O)N4CCC(Oc5ccc(N)cc5)CC4)nc3)CC2)cc1 [Compound 364, 6-(4-(4-aminophenoxy)piperidine-1-carbonyl)-N-(1-(4-cyanobenzyl)piperidin-4-yl)nicotinamide] | < 500
2 | N#Cc1ccc(CN2CCC(NC(=O)c3ccc(C(=O)N4CCC(C(=O)c5ccc(N6CCCC6)cc5)CC4)cn3)CC2)cc1 [Compound 365, N-(1-(4-cyanobenzyl)piperidin-4-yl)-5-(4-(4-(pyrrolidin-1-yl)benzoyl)piperidine-1-carbonyl)picolinamide] | < 500
3 | CC(=O)Nc1ccc(OC2CCN(C(=O)c3ccc(C(=O)NC4CCN(Cc5ccc(C#N)cc5)CC4)cn3)CC2)cc1 [Compound 366, 6-(4-(4-acetamidophenoxy)piperidine-1-carbonyl)-N-(1-(4-cyanobenzyl)piperidin-4-yl)nicotinamide] | < 500
4 | CS(=O)(=O)Nc1ccc(OC2CCN(C(=O)c3ccc(C(=O)NC4CCN(Cc5ccc(C#N)cc5)CC4)cn3)CC2)cc1 [Compound 367, N-(1-(4-cyanobenzyl)piperidin-4-yl)-6-(4-(4-(methylsulfonamido)phenoxy)piperidine-1-carbonyl)nicotinamide] | > 10000
5 | O=C(Nc1ccc(Oc2ccc(F)cc2)nc1)c1ccc(C(=O)N2CCC(C(=O)c3ccc(N4CCCC4)cc3)CC2)cn1 [Compound 368, N-(6-(4-fluorophenoxy)pyridin-3-yl)-5-(4-(4-(pyrrolidin-1-yl)benzoyl)piperidine-1-carbonyl)picolinamide] | < 500
6 | N#Cc1ccc(CN2CCC(NC(=O)c3ccc(C(=O)N4CCC(C(=O)c5ccc(C#N)cc5)CC4)cn3)CC2)cc1 [Compound 369, 5-(4-(4-cyanobenzoyl)piperidine-1-carbonyl)-N-(1-(4-cyanobenzyl)piperidin-4-yl)picolinamide] | < 500
7 | CN(C)c1ccc(OC2CCN(C(=O)c3ccc(C(=O)NC4CCN(Cc5ccc(C#N)cc5)CC4)cn3)CC2)cc1 [Compound 370, N-(1-(4-cyanobenzyl)piperidin-4-yl)-6-(4-(4-(dimethylamino)phenoxy)piperidine-1-carbonyl)nicotinamide] | < 500
8 | N#Cc1ccc(CN2CCC(NC(=O)c3ccc(C(=O)N4CCC(Oc5ccc(NC(=O)CCOCCOCCOCCOCCNC(=O)CCC[C@@H]6SC[C@@H]7NC(=O)N[C@@H]76)cc5)CC4)nc3)CC2)cc1 [Compound 371, N-(1-(4-cyanobenzyl)piperidin-4-yl)-6-(4-(4-(17-oxo-20-((3aS,4S,6aR)-2-oxohexahydro-1H-thieno[3,4-d]imidazol-4-yl)-4,7,10,13-tetraoxa-16-azaicosanamido)phenoxy)piperidine-1-carbonyl)nicotinamide] | > 10000
9 | CSc1ccc(C(=O)C2CCN(C(=O)c3ccc(C(=O)NC4CCN(Cc5ccc(C#N)cc5)CC4)nc3)CC2)cc1 [Compound 372, N-(1-(4-cyanobenzyl)piperidin-4-yl)-5-(4-(4-(methylthio)benzoyl)piperidine-1-carbonyl)picolinamide] | < 500
10 | COc1ccc(C(=O)C2CCN(C(=O)c3ccc(C(=O)NC4CCN(Cc5ccc([N+](=O)[O-])cc5)CC4)cn3)CC2)cc1 [Compound 373, 6-(4-(4-methoxybenzoyl)piperidine-1-carbonyl)-N-(1-(4-nitrobenzyl)piperidin-4-yl)nicotinamide] | < 500
11 | C[S+]([O-])c1ccc(C(=O)C2CCN(C(=O)c3ccc(C(=O)NC4CC[N+]([O-])(Cc5ccc(C#N)cc5)CC4)nc3)CC2)cc1 (stereo not shown) [Compound 374, 1-(4-cyanobenzyl)-4-(5-(4-(4-(methylsulfinyl)benzoyl)piperidine-1-carbonyl)picolinamido)piperidine 1-oxide] | > 10000
12 | N#Cc1ccc(CN2CCC(NC(=O)c3ccc(C(=O)N4CCC(C(=O)c5ccc(-n6cccn6)cc5)CC4)cn3)CC2)cc1 [Compound 375, 5-(4-(4-(1H-pyrazol-1-yl)benzoyl)piperidine-1-carbonyl)-N-(1-(4-cyanobenzyl)piperidin-4-yl)picolinamide] | < 500
13 | N#Cc1ccc(CN2CCC(NC(=O)c3ccc(C(=O)N4CCC(C(=O)c5ccc(N6CCOCC6)cc5)CC4)cn3)CC2)cc1 [Compound 376, N-(1-(4-cyanobenzyl)piperidin-4-yl)-5-(4-(4-morpholinobenzoyl)piperidine-1-carbonyl)picolinamide] | < 500
14 | N#Cc1ccc(CN2CCC(NC(=O)c3ccc(C(=O)N4CCC(C(=O)c5ccc(N6CCCC6)cc5)CC4)nc3)CC2)cc1 [Compound 377, N-(1-(4-cyanobenzyl)piperidin-4-yl)-6-(4-(4-(pyrrolidin-1-yl)benzoyl)piperidine-1-carbonyl)nicotinamide] | < 500
15 | COc1ccc(OC2CCN(C(=O)c3ccc(C(=O)NC4CCN(Cc5ccc(C#N)cc5)CC4)cn3)CC2)c([N+](=O)[O-])c1 [Compound 378, N-(1-(4-cyanobenzyl)piperidin-4-yl)-6-(4-(4-methoxy-2-nitrophenoxy)piperidine-1-carbonyl)nicotinamide] | < 500
16 | O=C(Nc1ccc(Oc2ccc(F)cc2)nc1)c1ccc(C(=O)N2CCC(C(=O)c3ccc(N4CCOCC4)cc3)CC2)cn1 [Compound 379, N-(6-(4-fluorophenoxy)pyridin-3-yl)-5-(4-(4-morpholinobenzoyl)piperidine-1-carbonyl)picolinamide] | < 500

Row | SMILES | EC50 [nM]
17 | CN1CCN(c2ccc(C(=O)C3CCN(C(=O)c4ccc(C(=O)NC5CCN(Cc6ccc(C#N)cc6)CC5)nc4)CC3)cc2)CC1 [Compound 380, N-(1-(4-cyanobenzyl)piperidin-4-yl)-5-(4-(4-(4-methylpiperazin-1-yl)benzoyl)piperidine-1-carbonyl)picolinamide] | < 500
18 | O=C(NC1CCN(Cc2ccc(F)cc2)CC1)c1ccc(C(=O)N2CCC(C(=O)c3ccc(N4CCCC4)cc3)CC2)nc1 [Compound 381, N-(1-(4-fluorobenzyl)piperidin-4-yl)-6-(4-(4-(pyrrolidin-1-yl)benzoyl)piperidine-1-carbonyl)nicotinamide] | < 500
19 | O=C(Nc1ccc(Oc2ccc(F)cc2)nc1)c1ccc(C(=O)N2CCC(C(=O)c3ccc(N4CCCC4)cc3)CC2)nc1 [Compound 382, N-(6-(4-fluorophenoxy)pyridin-3-yl)-6-(4-(4-(pyrrolidin-1-yl)benzoyl)piperidine-1-carbonyl)nicotinamide] | < 500
20 | COc1ccc(OC2CCN(C(=O)c3ccc(C(=O)NC4CCN(Cc5ccc(C#N)cc5)CC4)cn3)CC2)c(NC(C)=O)c1 [Compound 383, 6-(4-(2-acetamido-4-methoxyphenoxy)piperidine-1-carbonyl)-N-(1-(4-cyanobenzyl)piperidin-4-yl)nicotinamide] | > 10000
21 | COc1ccc(OC2CCN(C(=O)c3ccc(C(=O)NC4CCN(Cc5ccc(C#N)cc5)CC4)cn3)CC2)c(N)c1 [Compound 384, 6-(4-(2-amino-4-methoxyphenoxy)piperidine-1-carbonyl)-N-(1-(4-cyanobenzyl)piperidin-4-yl)nicotinamide] | 500 to 1000
22 | COc1ccc(OC2CCN(C(=O)c3ccc(C(=O)NC4CCN(Cc5ccc(C#N)cc5)CC4)cn3)CC2)c(N(C)C)c1 [Compound 385, N-(1-(4-cyanobenzyl)piperidin-4-yl)-6-(4-(2-(dimethylamino)-4-methoxyphenoxy)piperidine-1-carbonyl)nicotinamide] | > 10000
23 | N#Cc1ccc(CN2CCC(NC(=O)c3ccc(C(=O)NC4CCN(Cc5ccc(C#N)cc5)CC4)nn3)CC2)cc1 [Compound 386, N3,N6-bis(1-(4-cyanobenzyl)piperidin-4-yl)pyridazine-3,6-dicarboxamide] | > 10000
24 | COc1ccc(C(=O)C2CCN(C(=O)c3ccc(C(=O)NC4CCN(Cc5ccc(C#N)cc5)CC4)nn3)CC2)cc1 [Compound 387, N-(1-(4-cyanobenzyl)piperidin-4-yl)-6-(4-(4-methoxybenzoyl)piperidine-1-carbonyl)pyridazine-3-carboxamide] | < 500
25 | N#Cc1ccc(CN2CCC(NC(=O)c3ccc(C(=O)N4CCC(Oc5ccc(C#N)cc5)CC4)nn3)CC2)cc1 [Compound 388, N-(1-(4-cyanobenzyl)piperidin-4-yl)-6-(4-(4-cyanophenoxy)piperidine-1-carbonyl)pyridazine-3-carboxamide] | < 500
26 | COc1ccc(OC2CCN(C(=O)c3ccc(C(=O)NC4CCN(Cc5ccc(C#N)cc5)CC4)cn3)CC2)c(NS(C)(=O)=O)c1 [Compound 389, N-(1-(4-cyanobenzyl)piperidin-4-yl)-6-(4-(4-methoxy-2-(methylsulfonamido)phenoxy)piperidine-1-carbonyl)nicotinamide] | 1000 to 5000
27 | CC(=O)c1ccc(OC2CCN(C(=O)c3ccc(C(=O)NC4CCN(Cc5ccc(C#N)cc5)CC4)cn3)CC2)cc1 [Compound 390, 6-(4-(4-acetylphenoxy)piperidine-1-carbonyl)-N-(1-(4-cyanobenzyl)piperidin-4-yl)nicotinamide] | < 500
28 | CC(=O)c1ccc(OC2CCN(C(=O)c3ccc(C(=O)NC4CCN(Cc5ccc(F)cc5)CC4)cn3)CC2)cc1 [Compound 391, 6-(4-(4-acetylphenoxy)piperidine-1-carbonyl)-N-(1-(4-fluorobenzyl)piperidin-4-yl)nicotinamide] | < 500
29 | O=C(NC1CCN(Cc2ccc(F)cc2)CC1)c1ccc(C(=O)N2CCC(C(=O)c3ccc(-n4cccn4)cc3)CC2)nc1 [Compound 392, 6-(4-(4-(1H-pyrazol-1-yl)benzoyl)piperidine-1-carbonyl)-N-(1-(4-fluorobenzyl)piperidin-4-yl)nicotinamide] | < 500
30 | N#Cc1ccc(CN2CCC(NC(=O)c3ccc(C(=O)N4CCC(C(=O)c5ccc(-n6cccn6)cc5)CC4)nc3)CC2)cc1 [Compound 393, 6-(4-(4-(1H-pyrazol-1-yl)benzoyl)piperidine-1-carbonyl)-N-(1-(4-cyanobenzyl)piperidin-4-yl)nicotinamide] | < 500
31 | COc1ccc(OC2CCN(C(=O)c3ccc(C(=O)NC4CCN(Cc5ccc(C#N)cc5)CC4)cn3)CC2)c(NC(=O)CCOCCOCCOCCOCCNC(=O)CCCC[C@@H]2SC[C@@H]3NC(=O)N[C@@H]32)c1 [Compound 394, N-(1-(4-cyanobenzyl)piperidin-4-yl)-6-(4-(4-methoxy-2-(17-oxo-21-((3aS,4S,6aR)-2-oxohexahydro-1H-thieno[3,4-d]imidazol-4-yl)-4,7,10,13-tetraoxa-16-azahenicosanamido)phenoxy)piperidine-1-carbonyl)nicotinamide] | > 10000

Source: patent publication US20150087673A1, “METHODS FOR USING AND BIOMARKERS FOR AMPK-ACTIVATING COMPOUNDS” (RIGEL PHARMACEUTICALS, INC., priority 2013, published 2015)
